Source: ChEMBL document CHEMBL1127154, “Azido-functionalized thiourea analogues acting as efficient photoaffinity probes for the urea channel” (1993)

Legend:
[1] = Compound was tested for its ability to inhibit the urea facilitated transport in the urinary bladder of female frog, activity expressed as percent inhibition.; assay type: functional
frog [2] = assay: Concentration in urinary bladder of female frog.; assay type: functional, tissue-based
[3] = Compound was tested for its ability to inhibit the urea facilitated transport in the urinary bladder of female frog after illumination, activity expressed as irreversibility of illumination.; assay type: functional
frog [4] = assay: Concentration in urinary bladder of female frog; very low solubility; assay type: functional, tissue-based

| SMILES | Inhibition [1] | Concentration (frog [2]) | Irreversibility [3] | Concentration (frog [4]) |
| --- | --- | --- | --- | --- |
| [N-]=[N+]=Nc1cc(/N=C(/N)S)ccc1Cl | 50% | 60.3 µM | 100% |  |
| [N-]=[N+]=Nc1ccc(NC(=S)Nc2ccc(Cl)c(Cl)c2)cc1 |  |  |  | very low solubility |
| [N-]=[N+]=Nc1ccc(/N=C(/N)S)cc1 | 25% | 500 µM | 100% |  |
| C/N=C(\S)Nc1ccc(Cl)c(N=[N+]=[N-])c1 | 50% | 31.6 µM | 100% |  |
| C/N=C(\S)Nc1nc2cc(N=[N+]=[N-])ccc2[nH]1 | 29% | 500 µM | 100% |  |
